In PubChem BioAssay AID743475 (The Scripps Research Institute Molecular Screening Center, 2014):
Calls of active or inactive are those of the source. How the calls were made is not given here.

Tested on: OTUB2
Experiment: late-stage follow-up, selectivity assay for CCHF vOTU protease inhibitor project, biochemical, fluorescence, assay provider (AID 743475)
Details: recombinant OTUB2, fluorogenic ubiquitin substrate, active compounds read high

NS(=O)(=O)c1ccc(NC2=CC(=O)C(=O)c3ccccc32)cc1
inhibition (run 1, at 11.51 µM): 78.7%

O=c1[nH]c(Nc2ccccc2)cc2cc(Br)ccc12
inhibition (run 1, at 1.45 µM): 57.8%

CCc1cc[n+](C2=C(NS(=O)(=O)c3cccs3)C(=O)c3ccccc3C2=O)cc1
inhibition (run 1, at 14.16 µM): 54%

COc1ccccc1NC(=O)COC(=O)c1ccc([N+](=O)[O-])s1
inhibition (run 1, at 35.07 µM): 61.9%

CCOC(=O)N=Nc1c2ccccc2c2nc3no[nH]c3nc12
inhibition (run 1, at 7.75 µM): 37.8%

O=C(COC(=O)c1ccc([N+](=O)[O-])s1)NCc1ccc(F)cc1
inhibition (run 1, at 40.58 µM): 39.9%

O=C(OCc1nnc(-c2ccccc2)o1)c1ccc([N+](=O)[O-])s1
inhibition (run 1, at 26.04 µM): 46.9%

Cc1ccc(NC2=CC(=O)C(=O)c3ccccc32)cc1
inhibition (run 1, at 12.24 µM): 78.7%

CN(C1=C(NC(=O)c2ccccc2)C(=O)c2ccccc2C1=O)C1CCS(=O)(=O)C1 (centres undefined)
inhibition (run 2, at 19.2 µM): 57.8%

O=C1C=C(Nc2ccccc2)c2ccccc2C1=O
inhibition (run 1, at 15.55 µM): 75.6%

COc1cc(Br)c(C(=O)c2nccc3cc(OC)c(OC)cc23)cc1OC
inhibition (run 1, at 1.13 µM): 17.2% (inactive)

NS(=O)(=O)c1ccc(NC(=O)COC(=O)c2ccc([N+](=O)[O-])s2)cc1
inhibition (run 1, at 29.01 µM): 37.5%

COC1=C(N)C(=O)c2nc(C)ccc2C1=O
inhibition (run 1, at 4.98 µM): 67.6%

Cc1ccccc1-c1cc2c(nn1)-c1ccccc1C2=O
inhibition (run 2, at 4.46 µM): 23.3%

Cc1c(Cl)cnc(NC(=O)COC(=O)c2ccc([N+](=O)[O-])s2)c1Cl
inhibition (run 1, at 20.44 µM): 49.9%

COC(CNC(=O)c1ccc2c3c(onc13)-c1ccccc1C2=O)OC
inhibition (run 1, at 24.19 µM): 58.5%

O=C(/C=C/c1ccc(O)cc1)c1ccc(NC2=C(N3CCCCC3)C(=O)c3ccccc3C2=O)cc1
inhibition (run 1, at 10.17 µM): 30.7%

O=C(NC1=C(NC2CCS(=O)(=O)C2)C(=O)c2ccccc2C1=O)c1ccccc1 (centres undefined)
inhibition (run 1, at 14.2 µM): 56.9%

O=C(c1ccco1)[C@@H]1[C@@H]2C(=O)N(c3ccc(Br)cc3)C(=O)[C@@H]2C2c3ccccc3C=CN21 (some centres undefined)
inhibition (run 1, at 11.01 µM): 91.8%

CC1CCCC(NC(=O)COC(=O)c2ccc([N+](=O)[O-])s2)C1C (centres undefined)
inhibition (run 1, at 31.32 µM): 33.7%

CC1COCC(C)N1C1=C(Cl)C(=O)c2ccccc2C1=O (centres undefined)
inhibition (run 1, at 14.67 µM): 23.6%

Cc1ccc2c(c1C)-c1c(ccc(C)c1C)C(=O)C2=O
inhibition (run 1, at 18.9 µM): 60.1%

Cn1nc(-c2ccccn2)nc2c(=O)n(C)c(=O)nc1-2
inhibition (run 1, at 1.16 µM): 98%

O=C(COC(=O)c1ccc([N+](=O)[O-])s1)Nc1ncc(C(F)(F)F)cc1Cl
inhibition (run 1, at 27.79 µM): 42.3%

O=C1Cc2ccccc2C(=O)N1
inhibition (run 1, at 0.6 µM): 67.3%

CCn1nc(/C=C/c2ccccc2)nc2c(=O)n(C)c(=O)nc1-2
inhibition (run 1, at 0.49 µM): 98.8%

O=C1Cc2ccccc2C(=O)N1Cc1ccccc1
inhibition (run 1, at 1.31 µM): 68.4%

Cc1ccc(N2C(=O)[C@@H]3[C@H](C2=O)C2c4ccccc4C=CN2[C@@H]3C(=O)c2ccco2)cc1 (some centres undefined)
inhibition (run 1, at 5.2 µM): 55.4%

CC1(C)C=C2C(=NN(c3ccccc3)C(N)=C2C#N)CO1
inhibition (run 1, at 23.49 µM): 78.2%

COc1ccc2noc3c2c1C(=O)c1ccccc1-3
inhibition (run 1, at 6.28 µM): 170%

O=C1Cc2ccccc2C(=O)N1CCc1ccccc1
inhibition (run 2, at 3.02 µM): 14.9% (inactive)

COc1cc(NC(=O)COC(=O)c2ccc([N+](=O)[O-])s2)cc(OC)c1OC
inhibition (run 1, at 21.72 µM): 41.2%

O=C(COC(=O)c1ccc([N+](=O)[O-])s1)Nc1ccc(F)cc1
inhibition (run 1, at 26.34 µM): 40.3%

O=C(NC1=CC(=O)c2ccccc2C1=O)c1ccccc1
inhibition (run 1, at 12.37 µM): 46.4%
